For one experiment, the target named is T1, Wee1 kinase domain (Homo sapiens, UniProt P30291).
T1 construct: Wee1 kinase domain was purchased from Carna (catalog #05-177); purchased Carna 05-177
The experiment is described as follows: Wee1 Kinase Biochemical Assay (ADP-Glo). The note with it: 15 uM ATP. In a few lines:
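ADP-Glo detection of ADP produced after 4 h at 25° C by 1 nM Wee1 kinase domain on 2 ng/mL poly(Lys,Tyr 4:1) with 15 uM ATP. Buffer: 40 mM Tris-HCl, 20 mM MgCl2, 0.1 mg/mL BSA, 2 mM DTT. Inhibition is relative to DMSO (high) and saturating Wee1 inhibitor (low) controls.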

The test system of experiment [1] is phosphorylation of Cdc2 Y15 (Wee1 substrate) in A427 cells. Briefly: Phosphorylated Cdc2 MSD Electrochemiluminescence Assay. The experiment is classed as cell-based. The conditions noted are these: Homo sapiens. The protocol: Phosphorylated Cdc2 MSD Electrochemiluminescence Assay
The effect of Wee1 inhibitors on cellular phosphorylation of the Wee1 substrate Cdc2 was determined using the following protocol:
A total of 40,000 A427 cells in 100 uL culture medium (1640 medium+10% Fetal bovine serum+1% Penicillin-Streptomycin) were plated in 96-well cell culture plates. 3-fold serial dilutions of test compounds were prepared in completed PBS at 25× final concentration. After 20 hours, the plates were removed and 4 μL of each were added to the cells and incubated with shaking for 30 minutes at 37° C., 5% CO2. Each concentration was tested in duplicate. After a total 6 hours incubation, plates were removed and centrifuged for 5 minutes and 100 uL of supernatant from each well was removed. Cells were washed with 200 μL PBS and lysed with 50 μL MSD lysis buffer (Meso Scale Diagnostics) supplied with 1× complete ULTRA cocktail inhibitor (Roche).
To detect phosphorylation of Cdc2 Y15, 30 μL of capture antibody solution (CST catalog #9116S 1:200) was added into each well of the MSD plate (MSD catalog #L15XB-6), sealed and incubated at 4° C. with shaking (450 rpm) overnight. The antibody solution was removed, wells blocked with BSA solution and plates washed three times with PBST, followed by addition of 30 μl of cell lysate per well. After 2 hours of incubation, plates were washed three times with PBST. 30 μL of 1× detection antibody solution (CST catalog #4539S 1:200) was then added to each well and incubated for 1 hour. Plates were washed three times with PBST and 30 μL of 1× secondary antibody solution (MSD, catalog #:R32AB-1, 1:5000) was added to each well and incubated for 1 hour. Plates were washed three times with PBST and 150 μL of 1× Read Buffer T (MSD, catalog #R92TC-1) was added to each well of the MSD plate. The electrochemiluminescence signal was measured on a MESO SECTOR S600 plate reader. The percentage of remaining phosphorylated Cdc2 signal was calculated following the equation below.
[formula] • HC (high control): Cells treated with DMSO • Cpds: Cells treated with test compounds • LC (low control): Cells treated with positive control Wee1 inhibitor

Where [2] appears, read: class symbols, 1 nM Wee1 enzyme, 4 hours at 25° C.
The mark [3] stands for this setting: A-427, class symbols, read-out: A427 pCDC2 MSD IC50.

pIC50: −log10 of the molar value. Like-named read-outs stand apart in the source and are kept apart here. A value given as a limit tells only on which side of the number the result lay.

T1 sequence (P30291 299-569 limits assumed): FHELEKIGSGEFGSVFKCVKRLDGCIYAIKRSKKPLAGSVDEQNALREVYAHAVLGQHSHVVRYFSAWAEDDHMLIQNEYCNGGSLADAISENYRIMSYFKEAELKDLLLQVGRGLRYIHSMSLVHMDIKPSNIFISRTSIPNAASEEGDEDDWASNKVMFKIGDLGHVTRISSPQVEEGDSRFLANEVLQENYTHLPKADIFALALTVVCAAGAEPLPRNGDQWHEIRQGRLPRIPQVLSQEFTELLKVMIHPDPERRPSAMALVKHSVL

By pIC50 is commonly meant −log10 of the IC50, conventionally taken in molar units. On to `CNCc1ccc(Nc2ncc3c(n2)N(c2cccc(N4C(=O)CC[C@@H]4C)n2)[C@@H]2CC(C)(C)OC[C@]32C)cc1` (single isomer, unassigned) [Example 730], for which the values for the pIC50 (on Wee1 kinase domain (setting [2]); in experiment [1] (setting [3])) were more than 8.00 and 6.00 to 7.00, respectively. On to `CNCc1cccc(N2c3nc(Nc4ccc([C@@H]5CCOC5)cc4)ncc3[C@@]3(C)COC(C)(C)C[C@@H]23)n1` (single isomer, unassigned) [Example 38], for which the pIC50 was more than 8.00 at Wee1 kinase domain (Wee1 kinase domain, ADP-Glo) and more than 7.00 in experiment [1] (A-427, pCDC2 MSD). With `CC1(C)C[C@H]2N(c3cccc([C@H]4COCCN4)n3)c3nc(Nc4ccc(N5CCOCC5)cc4)ncc3[C@@]2(C)CO1` [Example 731, (4bR,8aR)-4b,7,7-trimethyl-9-(6-((S)-morpholin-3-yl)pyridin-2-yl)-N-(4-morpholinophenyl)-4b,5,7,8,8a,9-hexahydropyrano[3′,4′:4,5]pyrrolo[2,3-d]pyrimidin-2-amine], the pIC50 on Wee1 kinase domain (setting [2]) was more than 8.00; in experiment [1] (setting [3]), 6.00 to 7.00. On to `CN1CCC(c2cccc(N3c4nc(Nc5ccc(N6CCOCC6)cc5)ncc4[C@@]4(C)COC(C)(C)C[C@@H]34)n2)CC1` (single isomer, unassigned) [Example 533], for which the negative-log IC50 (pIC50) is more than 8.00 at Wee1 kinase domain (setting [2]) and 6.00 to 7.00 in experiment [1] (setting [3]).

Take `CNCc1ccc(Nc2ncc3c(n2)N(c2cccc(N4C(=O)OC[C@@H]4C)n2)[C@@H]2CC(C)(C)OC[C@]32C)cc1` (single isomer, unassigned) [Example 360]: the negative logarithm of the IC50 (pIC50) at Wee1 kinase domain (Wee1 kinase domain, ADP-Glo) was more than 8.00; in experiment [1] (A-427, pCDC2 MSD) it was 6.00 to 7.00.

Take `CC1(C)C[C@H]2N(c3cccc(N=S(C)(C)=O)n3)c3nc(Nc4ccc(C5CNC5)c(F)c4)ncc3[C@@]2(C)CO1` (single isomer, unassigned) [Example 183]: the pIC50 at Wee1 kinase domain (Wee1 kinase domain, ADP-Glo) is more than 8.00; in experiment [1] (A-427, pCDC2 MSD), 6.00 to 7.00.

For `CN1Cc2cc(Nc3ncc4c(n3)N(c3cccc(N=S(C)(C)=O)n3)[C@@H]3CC(C)(C)OC[C@]43C)cnc2C1` (single isomer, unassigned) [Example 188], the negative-log IC50 (pIC50) is more than 8.00 against Wee1 kinase domain (Wee1 kinase domain, ADP-Glo) and more than 7.00 in experiment [1] (A-427, pCDC2 MSD). Regarding `CNCc1cccc(N2c3nc(Nc4ccc(N5C[C@@H](C)O[C@@H](C)C5)cc4)ncc3[C@]3(C)COC(C)(C)C[C@H]23)n1` (single isomer, unassigned) [Example 20], the negative logarithm of the IC50 (pIC50) on Wee1 kinase domain (Wee1 kinase domain, ADP-Glo) is more than 8.00; in experiment [1] (A-427, pCDC2 MSD), 6.00 to 7.00. In the case of `C[C@H]1COC(=O)N1c1cccc(N2c3nc(Nc4ccc(OC5CNC5)nc4)ncc3[C@@]3(C)COC(C)(C)C[C@@H]23)n1` (single isomer, unassigned) [Example 343], the pIC50 at Wee1 kinase domain (Wee1 kinase domain, ADP-Glo) is more than 8.00; in experiment [1] (A-427, pCDC2 MSD), 6.00 to 7.00. Regarding `CN1CCC[C@@H]1c1ccc(Nc2ncc3c(n2)N(c2cccc(N=S(C)(C)=O)n2)[C@@H]2CC(C)(C)OC[C@]32C)cc1` (single isomer, unassigned) [Example 127], the pIC50 against Wee1 kinase domain (Wee1 kinase domain, ADP-Glo) was more than 8.00; in experiment [1] (A-427, pCDC2 MSD) it was more than 7.00.

On to `CC1(C)C[C@H]2N(c3cccc(N=S(C)(C)=O)n3)c3nc(NC(=O)[C@H]4C[C@@H]4C4CCOCC4)ncc3[C@@]2(C)CO1` (single isomer, unassigned) [Example 411], for which the negative logarithm of the IC50 (pIC50) is more than 8.00 against Wee1 kinase domain (setting [2]) and 5.00 to 6.00 in experiment [1] (setting [3]). With `CC1(C)CC2N(c3cccc(N=S(C)(C)=O)n3)c3nc(Nc4ccc(N5CCOCC5)cc4)ncc3C2(C)CO1` (single isomer, unassigned) [Example 496], the negative-log IC50 (pIC50) at Wee1 kinase domain (setting [2]) is more than 8.00; in experiment [1] (setting [3]), 6.00 to 7.00. With `CNCc1cccc(N2c3nc(Nc4ccc(N5CCOCC5)c(C)c4)ncc3[C@@]3(C)COC(C)(C)C[C@@H]23)n1` (single isomer, unassigned) [Example 26], the negative logarithm of the IC50 (pIC50) was more than 8.00 against Wee1 kinase domain (Wee1 kinase domain, ADP-Glo) and 6.00 to 7.00 in experiment [1] (A-427, pCDC2 MSD). For the molecule `CN1CC[C@H](Oc2ccc(Nc3ncc4c(n3)N(c3cccc(N5CCOC5=O)n3)[C@@H]3CC(C)(C)OC[C@]43C)cc2)C1` [Example 615, 3-(6-((4bR,8aR)-4b,7,7-trimethyl-2-((4-(((S)-1-methylpyrrolidin-3-yl)oxy)phenyl)amino)-4b,7,8,8a-tetrahydropyrano[3′,4′:4,5]pyrrolo[2,3-d]pyrimidin-9(5H)-yl)pyridin-2-yl)oxazolidin-2-one], the negative logarithm of the IC50 (pIC50) is more than 8.00 on Wee1 kinase domain (setting [2]) and more than 7.00 in experiment [1] (setting [3]). `C[C@H]1CCC(=O)N1c1cccc(N2c3nc(Nc4ccc(N5CC6(CN(C)C6)C5)cc4)ncc3[C@@]3(C)COC(C)(C)C[C@@H]23)n1` (single isomer, unassigned) [Example 725]: the negative logarithm of the IC50 (pIC50) at Wee1 kinase domain (setting [2]) is more than 8.00; in experiment [1] (setting [3]), 6.00 to 7.00. In the case of `Cc1cc(Nc2ncc3c(n2)N(c2cccc(N4C(=O)OC[C@@H]4C)n2)[C@@H]2CC(C)(C)OC[C@]32C)ccc1O[C@H]1CCNC1` (single isomer, unassigned) [Example 339], the negative-log IC50 (pIC50) was more than 8.00 on Wee1 kinase domain (Wee1 kinase domain, ADP-Glo) and 6.00 to 7.00 in experiment [1] (A-427, pCDC2 MSD). As for `CN1CC[C@H](n2ccc(Nc3ncc4c(n3)N(c3cccc(N=S(C)(C)=O)n3)[C@@H]3CC(C)(C)OC[C@]43C)n2)C1` (single isomer, unassigned) [Example 225], the pIC50 against Wee1 kinase domain (Wee1 kinase domain, ADP-Glo) is more than 8.00; in experiment [1] (A-427, pCDC2 MSD), 5.00 to 6.00. In the same order, the values of `CN1CCCC(n2cc(Nc3ncc4c(n3)N(c3cccc(N=S(C)(C)=O)n3)C3CC(C)(C)OCC43C)cn2)C1` (single isomer, unassigned) [Example 202] are more than 8.00 and 6.00 to 7.00. As to `CC1(C)C[C@H]2N(c3cccc(N=S(C)(C)=O)n3)c3nc(Nc4ccc(O[C@@H]5CCNC5)cc4)ncc3[C@@]2(C)CO1` (single isomer, unassigned) [Example 155], the negative logarithm of the IC50 (pIC50) against Wee1 kinase domain (Wee1 kinase domain, ADP-Glo) is more than 8.00; in experiment [1] (A-427, pCDC2 MSD), 6.00 to 7.00. For `CC1(C)C[C@H]2N(c3cccc(N4CCOC4=O)n3)c3nc(Nc4ccc([C@H]5CCNC5)cc4)ncc3[C@@]2(C)CO1` (single isomer, unassigned) [Example 608], the figures for the negative logarithm of the IC50 (pIC50) (against Wee1 kinase domain (setting [2]); in experiment [1] (setting [3])) were more than 8.00 and 6.00 to 7.00, respectively.

Regarding `CC1(C)C[C@H]2N(c3cccc(C(C)(C)N)n3)c3nc(Nc4ccc(N5CCOCC5)cc4)ncc3[C@@]2(C)CO1` (single isomer, unassigned) [Example 567], the values for the pIC50 (on Wee1 kinase domain (setting [2]); in experiment [1] (setting [3])) were more than 8.00 and more than 7.00, respectively. `Cn1cc(Nc2ncc3c(n2)N(c2cccc(N=S(C)(C)=O)n2)[C@@H]2CC(C)(C)OC[C@]32C)ccc1=O` (single isomer, unassigned) [Example 495]: the pIC50 was more than 8.00 at Wee1 kinase domain (setting [2]) and 5.00 to 6.00 in experiment [1] (setting [3]). Consider `CN1C[C@@H]2C[C@H]1CN2c1ccc(Nc2ncc3c(n2)N(c2cccc(N4CCCC4=O)n2)[C@@H]2CC(C)(C)OC[C@]32C)cc1` [Example 629, 1-(6-((4bR,8aR)-4b,7,7-trimethyl-2-((4-((1S,4S)-5-methyl-2,5-diazabicyclo[2.2.1]heptan-2-yl)phenyl)amino)-4b,7,8,8a-tetrahydropyrano[3′,4′:4,5]pyrrolo[2,3-d]pyrimidin-9(5H)-yl)pyridin-2-yl)pyrrolidin-2-one], for which the negative-log IC50 (pIC50) against Wee1 kinase domain (setting [2]) is more than 8.00; in experiment [1] (setting [3]), 6.00 to 7.00. For `CN1CC[C@@H](n2ccc(Nc3ncc4c(n3)N(c3cccc(N=S(C)(C)=O)n3)[C@@H]3CC(C)(C)OC[C@]43C)n2)C1` (single isomer, unassigned) [Example 227], the negative-log IC50 (pIC50) against Wee1 kinase domain (Wee1 kinase domain, ADP-Glo) was more than 8.00; in experiment [1] (A-427, pCDC2 MSD) it was 5.00 to 6.00. On to `Cc1cc(Nc2ncc3c(n2)N(c2cccc(N4C(=O)OC[C@@H]4C)n2)[C@@H]2CC(C)(C)OC[C@]32C)ccc1C1CCN(C)CC1` (single isomer, unassigned) [Example 238], for which the pIC50 at Wee1 kinase domain (Wee1 kinase domain, ADP-Glo) is more than 8.00; in experiment [1] (A-427, pCDC2 MSD), 6.00 to 7.00. On to `CC1(C)C[C@H]2N(c3cccc(N=S(C)(C)=O)n3)c3nc(Nc4ccc(N5C[C@H]6C[C@@H]5CO6)cc4)ncc3[C@@]2(C)CO1` (single isomer, unassigned) [Example 498], for which the negative logarithm of the IC50 (pIC50) at Wee1 kinase domain (setting [2]) is more than 8.00; in experiment [1] (setting [3]), 6.00 to 7.00. Molecule `CC1(C)C[C@H]2N(c3cccc([C@@H]4CCCN4)n3)c3nc(Nc4ccn(C5CCOCC5)c(=O)c4)ncc3[C@@]2(C)CO1` (single isomer, unassigned) [Example 392, 1-(tetrahydro-2H-pyran-4-yl)-4-(((4bR,8aR)-4b,7,7-trimethyl-9-(6-((S)-pyrrolidin-2-yl)pyridin-2-yl)-4b,5,7,8,8a,9-hexahydropyrano[3′,4′:4,5]pyrrolo[2,3-d]pyrimidin-2-yl)amino)pyridin-2(1H)-one] showed a pIC50 in experiment [1] (A-427, pCDC2 MSD) of 5.00 to 6.00.

Source of the values: patent US20260166039A1 (SCHRÖDINGER, INC., priority 2022, published 2026).
